Experiments:
human TGR12 = biological target: T1, human TGR12 (Homo sapiens, UniProt Q96LB1); test: Intracellular calcium increasing activity in RBL2H3-TGR12 (FLIPR); type: cell-based
T1 construct: expressed in transfected cells
T1 sequence (Q96LB1 1-330): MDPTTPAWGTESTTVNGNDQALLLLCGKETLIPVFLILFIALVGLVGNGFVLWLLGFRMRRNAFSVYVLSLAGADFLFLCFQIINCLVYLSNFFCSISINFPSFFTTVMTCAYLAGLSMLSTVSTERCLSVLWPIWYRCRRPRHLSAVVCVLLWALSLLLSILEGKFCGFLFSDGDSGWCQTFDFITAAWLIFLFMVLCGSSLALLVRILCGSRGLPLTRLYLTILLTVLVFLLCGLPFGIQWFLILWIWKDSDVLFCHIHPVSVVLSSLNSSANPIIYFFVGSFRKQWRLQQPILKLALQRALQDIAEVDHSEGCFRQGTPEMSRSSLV
Procedure: RBL-2H3 (hereinafter RBL2H3) was incubated in α-MEM (Invitrogen) supplemented with 10% fetal calf serum. Vector plasmid pcDNA3.1 for animal cell expression, in which the nucleotide sequence containing the initiation codon to the termination codon of human TGR12 (DNA having the nucleotide sequence represented by SEQ ID NO: 32) was incorporated, was stably expressed in RBL-2H3 to establish human TGR12-expressed RBL-2H3 cell line (hereinafter RBL2H3-TGR12). RBL2H3-TGR12 was incubated in α-MEM (Invitrogen) supplemented with 10% fetal calf serum and 200 μg/mL of Geneticin.
The intracellular calcium increasing activity was assayed as follows. RBL2H3 and RBL2H3-TGR12 were plated in a 96-well plate at a density of 40,000 cells/well and incubated overnight. The medium was then discarded and 100 μL/well of 4 μM Fluo3-AM (Dojin Kagaku)-containing assay buffer [Hank's Balanced Salt Solution (Invitrogen), 20 mM HEPES (Dojin Kagaku) and 2.5 mM Probenecid (Sigma)] was added. The mixture was allowed to stand for an hour at 37° C. Various TGR12 (Peptide Institute, Inc.) or calcium ionophore A23187 (Wako Pure Chemical) was diluted in 0.05% CHAPS-containing assay buffer. After the cells were washed with the assay buffer, fluorescence emitted with changes in intracellular calcium was measured using FLIPR (Molecular Device). A sample, 50 μL, was added at a rate of 50 μL/sec. 10 seconds after initiation of the assay. Fluorescence was measured every 1 second during the first 60 seconds and every 6 seconds during the next 120 seconds. The highest fluorescence intensity during 3 minutes was made the maximum activity under the stimulation conditions, which was taken as an average of 3 wells. The EC50 values were calculated using Graphpad PRISM 4 (Graphpad Software).

[1] = tested on: human mast cell line LAD 2; test: Expression of TNF-α, CCL-2 or CCL-5 mRNA in LAD 2 (TaqMan PCR); type: cell-based; conditions: various TGR12 ligands experiment, 1 μM, two hours after stimulation
Procedure: Human mast cell line LAD 2 was cultured in StemPro-34 medium (Invitrogen) supplemented with 100 ng/mL of stem cell factor (Immuno-Biological Laboratories Co., Ltd.). […] A 750 μL aliquot was inoculated on a 24-well plate, which was then allowed to stand in a CO2 incubator at 37° C. for 30 minutes. […] The assay was performed for the respective reaction conditions in n=3. The plate was ice-chilled 0.5, 2, 8 and 24 hours after to stop the activation of LAD 2. After centrifugation at 300×g for 5 minutes, total RNA was extracted from the precipitated cells using RNeasy Mini Kit (Qiagen) according to the protocol attached. Further in the experiments where expression levels upon stimulation by various TGR12 ligands were analyzed, LAD 2 was centrifuged at 300×g for 5 minutes and the cells precipitated were counted and suspended in the medium at 1.33×10^6 cells/mL. A 750 μL aliquot was inoculated on a 24-well plate, which was allowed to stand in a CO2 incubator at 37° C. for 30 minutes. […] The assay was performed for the respective reaction conditions in n=3. Two hours after, the plate was ice-chilled to stop the activation of LAD 2. After centrifugation at 300×g for 5 minutes, total RNA was extracted from the precipitated cells using RNeasy Mini Kit (Qiagen) according to the protocol attached. The total RNA obtained as described above was concentrated using ethachinmate according to the protocol attached and dissolved in RNase-free H2O, Next, using the solution corresponding to […] of total RNA, reverse transcription was performed by the following procedure using SuperScript II reverse transcriptase (Invitrogen) to synthesize single stranded cDNA. To the total RNA solution, 0.1 μg of random primer (Invitrogen) and 1 μL of 10 mM dNTP (Invitrogen) were added and then RNase-free H2O was added to make the whole volume 12 μL. The mixture was then incubated at 70° C. for 10 minutes and ice-cooled for a minute. After 4 μL of 5× First-Strand Buffer (attached to SuperScript II reverse transcriptase), 2 μL of 0.1M DTT (attached to SuperScript II reverse transcriptase), 1 μL of RNaseOUT (Invitrogen) and 1 μL of SuperScript II reverse transcriptase were added, the mixture was incubated at 42° C. for 50 minutes, then at 70° C. for 15 minutes and ice-cooled for 5 minutes. The thus obtained cDNA was purified using ethachinmate in accordance with the protocol attached and dissolved in Tris-EDTA buffer (Fluka).
In TaqMan PCR below, hTNFalpha-tF (SEQ ID NO: 33) and hTNFalpha-tR (SEQ ID NO: 34) were used as primers for human TNF-α quantification, hTNFalpha-tP (SEQ ID NO: 35) as a probe and hTNFalpha-standard (SEQ ID NO: 36) as a standard. For human CCL-5 quantification, hCCL5-tF (SEQ ID NO: 37) and hCCL5-tR (SEQ ID NO: 38) were used as primers, hCCL5-tP (SEQ ID NO: 39) as a probe and hCCL5 standard (SEQ ID NO: 40) as a standard. For human CCL-2 quantification, hCCL2-tF (SEQ ID NO: 41) and hCCL2-tR (SEQ ID NO: 42) were used as primers, hCCL2-tP (SEQ ID NO: 43) as a probe and hCCL2 standard (SEQ ID NO: 44) as a standard.
TaqMan PCR was performed in n=2 for each sample in a liquid volume of 15 μl using 12.5 ng of total RNA as a template. The reaction solution was composed of 900 nM primer, 250 nM probe and ½ volume of TaqMan Universal PCR Master Mix (Applied Biosystems). The reaction and analysis were performed by ABI PRISM 7900HT Sequence Detection System (Applied Biosystems). After keeping warm at 50° C. for 2 minutes and then at 95° C. for 10 minutes, the reaction cycle was set in one cycle to include 95° C. for 15 seconds and 60° C. for 1 minute and repeating the cycle 40 times.

Structure (SMILES) | maximum activity in the calcium increasing effect (human TGR12; RBL2H3-TGR12, 1 nM) | maximum activity in the calcium increasing effect (human TGR12; RBL2H3-TGR12, 10 nM) | maximum activity in the calcium increasing effect (human TGR12; RBL2H3-TGR12, 100 nM) | maximum activity in the calcium increasing effect (human TGR12; RBL2H3-TGR12, 1 μM) | maximum activity in the calcium increasing effect (human TGR12; RBL2H3-TGR12, 10 μM) | expression level of CCL-2 in LAD 2 [1] [copies] | expression level of CCL-5 in LAD 2 [1] [copies] | expression level of TNF-α in LAD 2 [1] [copies]
CC[C@H](C)[C@H](NC(=O)CNC(=O)[C@H](CC(=O)O)NC(=O)[C@H](CO)NC(=O)[C@@H](N)Cc1c[nH]cn1)C(=O)N[C@@H](Cc1ccccc1)C(=O)N[C@H](C(=O)N[C@@H](CC(=O)O)C(=O)N[C@@H](CO)C(=O)N[C@@H](Cc1ccc(O)cc1)C(=O)N[C@@H](CO)C(=O)N[C@@H](CCCNC(=N)N)C(=O)N[C@@H](Cc1ccc(O)cc1)C(=O)N[C@@H](CCCNC(=N)N)C(=O)N[C@@H](CCCCN)C(=O)N[C@@H](CCC(N)=O)C(=O)N[C@@H](CCSC)C(=O)N[C@@H](C)C(=O)N[C@H](C(=O)N[C@@H](CCCCN)C(=O)N[C@@H](CCCCN)C(=O)N[C@@H](Cc1ccc(O)cc1)C(=O)N[C@@H](CC(C)C)C(=O)N[C@@H](C)C(=O)N[C@@H](C)C(=O)N[C@H](C(=O)N[C@@H](CC(C)C)C(N)=O)C(C)C)C(C)C)[C@@H](C)O [PACAP-27] | 40 | 29 | 5300 | 11494 | 12667 | 3809873 | 48242 | 219597
CC(C)C[C@H](NC(=O)[C@H](C)NC(=O)[C@H](Cc1c[nH]c2ccccc12)NC(=O)[C@H](CCCCN)NC(=O)[C@H](CC(N)=O)NC(=O)[C@H](Cc1c[nH]c2ccccc12)NC(=O)[C@H](CCCCN)NC(=O)[C@H](CCCCN)NC(=O)[C@H](CCCNC(=N)N)NC(=O)[C@@H](N)Cc1ccccc1)C(=O)N[C@@H](CO)C(=O)N[C@@H](CCCNC(=N)N)C(N)=O [PAMP-12, proadrenomedullin N-terminal 20 peptide (9-20)] | 41 | 2088 | 11110 | 12039 | 12331 | 1143248 | 34566 | 8918
CC[C@H](C)[C@H](NC(=O)[C@H](CO)NC(=O)[C@H](CC(N)=O)NC(=O)[C@H](CC(C)C)NC(=O)[C@H](Cc1ccc(O)cc1)NC(=O)[C@H](CCCCN)NC(=O)[C@H](CCCCN)NC(=O)[C@@H](NC(=O)[C@H](C)NC(=O)[C@H](CCSC)NC(=O)[C@H](CCC(N)=O)NC(=O)[C@H](CCCCN)NC(=O)[C@H](CCCNC(=N)N)NC(=O)[C@H](CC(C)C)NC(=O)[C@H](CCCNC(=N)N)NC(=O)[C@@H](NC(=O)[C@H](Cc1ccc(O)cc1)NC(=O)[C@H](CC(N)=O)NC(=O)[C@H](CC(=O)O)NC(=O)[C@@H](NC(=O)[C@H](Cc1ccccc1)NC(=O)[C@@H](NC(=O)[C@H](C)NC(=O)[C@H](CC(=O)O)NC(=O)[C@H](CO)NC(=O)[C@@H](N)Cc1c[nH]cn1)C(C)C)[C@@H](C)O)[C@@H](C)O)C(C)C)C(=O)N[C@@H](CC(C)C)C(=O)N[C@@H](CC(N)=O)C(N)=O [VIP, vasoactive intestinal polypeptide] | – | – | – | – | – | 3630286 | 45015 | 176630
CSCC[C@H](NC(=O)[C@H](CCCNC(=N)N)NC(=O)[C@@H](N)CC(=O)O)C(=O)N1CCC[C@H]1C(=O)N[C@H]1CSSC[C@@H](C(=O)N[C@@H](CCCCN)C(=O)O)NC(=O)[C@H](CO)NC(=O)[C@H](CO)NC(=O)[C@H](Cc2ccccc2)NC(=O)[C@H]([C@@H](C)O)NC(=O)[C@H](CCCCN)NC(=O)[C@H](Cc2c[nH]c3ccccc23)NC(=O)[C@H](Cc2ccccc2)NC(=O)[C@H](Cc2ccccc2)NC(=O)[C@H](CC(N)=O)NC(=O)[C@H](CCCNC(=N)N)NC1=O [cortistatin-17] | −2 | 33 | 1574 | 11193 | 12762 | 2944622 | 47322 | 163551
